In PMC6753678, “Fueling Open Innovation for Malaria Transmission-Blocking Drugs: Hundreds of Molecules Targeting Early Parasite Mosquito Stages” (Frontiers in Microbiology, 2019):
Read-outs that look alike come from different tables or passages of the source.

Tests used:
[1] = test system: P. falciparum female gametocytes; assay: P. falciparum female gametogenesis assay (Pf FGAA); details: 1: YES; 0: NO
HepG2 cells [2] = assay: HepG2 cytotoxicity assay; details: HepG2 cytotoxicity unified across the three screens
Procedure, shortened: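 Cells are plated at 2,500 per well on compound-treated plates in MEM containing 10% fetal bovine serum and 1% NEAA, then incubated 48 h at 37°C.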

HepG2 cells [3] = details: cited from earlier work
[4] = test system: P. berghei ookinete development; details: primary screen at 1 μM
[5] = test system: P. falciparum female gametocytes; design: method as in Miguel-Blanco et al 2017; details: TCAMS screen comparison; ref Miguel-Blanco et al 2017; read-out: Pf FGAA IC50; cited from earlier work
[6] = test system: P. falciparum late stage (stages IV-V) gametocytes; assay: P. falciparum late stage gametocyte ATP depletion assay (Pf GC-ATP); details: 1: YES; 0: NO
[7] = test system: P. falciparum late stage (stages IV-V) gametocytes; design: method as in Almela et al 2016; details: TCAMS screen comparison; ref Almela et al 2016; read-out: Pf GCT ATP IC50; cited from earlier work
[8] = value reported with the Pf FGAA screen, ref Miguel-Blanco et al 2017
[9] = value reported with the Pf GCT ATP screen, ref Almela et al 2016

SMILES: Nc1nc(N)c2c(ccc3c2ccn3Cc2ccc(-c3ccccc3)cc2)n1 [TCMDC-137813]
- Is compound selective in assay? Pf FGAA active? [1]: 0 (0: NO)
- Unified cytotox (HepG2 cells [2]): 1.38 µM
- HepG2 cytoxicity (HepG2 cells [3]; [8]): 1.16 µM
- HepG2 cytoxicity (HepG2 cells [3]; [9]): 1.6 µM
- % inhibition, Replicate A ([4]; replicate A): 53.67%
- % inhibition, Replicate B ([4]; replicate B): 5.32%
- IC50 [5]: 2010 nM
- Is compound selective in assay? Pf GC-ATP active? [6]: 0 (0: NO)
- IC50 [7]: 1450 nM

SMILES: CC(Cc1ccc(CNC(=O)c2ccc(CC(C)NCCc3cccc(Cl)c3)cc2)cc1)NCCc1cccc(Cl)c1 (stereo not drawn) [TCMDC-139659]
- Is compound selective in assay? Pf FGAA active? [1]: 0 (0: NO)
- Unified cytotox (HepG2 cells [2]): 2.71 µM
- HepG2 cytoxicity (HepG2 cells [3]; [8]): 2.26 µM
- HepG2 cytoxicity (HepG2 cells [3]; [9]): 3.15 µM
- IC50 [5]: 860 nM
- Is compound selective in assay? Pf GC-ATP active? [6]: 0 (0: NO)
- IC50 [7]: 570 nM

SMILES: CC(=O)N(Cc1ccc(CC(C)NCCc2cccc(Cl)c2)cc1)Cc1ccc(CC(C)NCCc2cccc(Cl)c2)cc1 (stereo not drawn) [TCMDC-139678]
- Is compound selective in assay? Pf FGAA active? [1]: 0 (0: NO)
- Unified cytotox (HepG2 cells [2]): 2.58 µM
- HepG2 cytoxicity (HepG2 cells [3]; [8]): 2.85 µM
- HepG2 cytoxicity (HepG2 cells [3]; [9]): 2.3 µM
- IC50 [5]: 810 nM
- Is compound selective in assay? Pf GC-ATP active? [6]: 0 (0: NO)
- IC50 [7]: 1400 nM

SMILES: c1cc(Nc2nc(-c3ccc(-c4csc(Nc5ccncc5)n4)cc3)cs2)ccn1 [TCMDC-139725]
- Is compound selective in assay? Pf FGAA active? [1]: 1 (1: YES)
- Unified cytotox (HepG2 cells [2]): 9.78 µM
- HepG2 cytoxicity (HepG2 cells [3]; [8]): 2.26 µM
- HepG2 cytoxicity (HepG2 cells [3]; [9]): 17.3 µM
- IC50 [5]: 30 nM
- Is compound selective in assay? Pf GC-ATP active? [6]: 1 (1: YES)
- IC50 [7]: 260 nM

SMILES: CC(Cc1ccc(C(=O)Nc2ccc(CC(C)NCCc3cccc(Cl)c3)cc2)cc1)NCCc1ccc(C(F)(F)F)cc1 (stereo not drawn) [TCMDC-139790]
- Is compound selective in assay? Pf FGAA active? [1]: 0 (0: NO)
- Unified cytotox (HepG2 cells [2]): 3.71 µM
- HepG2 cytoxicity (HepG2 cells [3]; [8]): 4.13 µM
- HepG2 cytoxicity (HepG2 cells [3]; [9]): 3.3 µM
- IC50 [5]: 1010 nM
- Is compound selective in assay? Pf GC-ATP active? [6]: 1 (1: YES)
- IC50 [7]: 310 nM

SMILES: CC(CCCCCC(=O)Nc1ccc(CC(C)NCCc2cccc(Cl)c2)cc1)NCCc1cccc(Cl)c1 (stereo not drawn) [TCMDC-139800]
- Is compound selective in assay? Pf FGAA active? [1]: 0 (0: NO)
- Unified cytotox (HepG2 cells [2]): 2.87 µM
- HepG2 cytoxicity (HepG2 cells [3]; [8]): 2.55 µM
- HepG2 cytoxicity (HepG2 cells [3]; [9]): 3.2 µM
- IC50 [5]: 1390 nM
- Is compound selective in assay? Pf GC-ATP active? [6]: 0 (0: NO)
- IC50 [7]: 430 nM

SMILES: CCOc1ccccc1CCNC(C)Cc1ccc(C(=O)Nc2ccc(CC(C)NCCc3cccc(Cl)c3)cc2)cc1 (stereo not drawn) [TCMDC-139805]
- Is compound selective in assay? Pf FGAA active? [1]: 0 (0: NO)
- Unified cytotox (HepG2 cells [2]): 3.37 µM
- HepG2 cytoxicity (HepG2 cells [3]; [8]): 3.24 µM
- HepG2 cytoxicity (HepG2 cells [3]; [9]): 3.5 µM
- IC50 [5]: 1390 nM
- Is compound selective in assay? Pf GC-ATP active? [6]: 0 (0: NO)
- IC50 [7]: 610 nM

SMILES: CCCCCCCN1CC[C@@H](CCCc2ccnc3ccc(OCCN4CCNCC4)cc23)[C@@H](CC)C1.Cl [TCMDC-139817]
- Is compound selective in assay? Pf FGAA active? [1]: 0 (0: NO)
- Unified cytotox (HepG2 cells [2]): 5.82 µM
- HepG2 cytoxicity (HepG2 cells [3]; [8]): 4.90 µM
- HepG2 cytoxicity (HepG2 cells [3]; [9]): 6.75 µM
- IC50 [5]: 1860 nM
- Is compound selective in assay? Pf GC-ATP active? [6]: 1 (1: YES)
- IC50 [7]: 570 nM

SMILES: Cc1oc(-c2ccc(Cl)cc2)cc1C(=O)NCCC1CCN(CCCCCNC(=O)/C=C/c2ccc(Cl)c(Cl)c2)CC1 [TCMDC-140009]
- Is compound selective in assay? Pf FGAA active? [1]: 0 (0: NO)
- Unified cytotox (HepG2 cells [2]): 3.71 µM
- HepG2 cytoxicity (HepG2 cells [3]; [8]): 3.31 µM
- HepG2 cytoxicity (HepG2 cells [3]; [9]): 4.1 µM
- IC50 [5]: 1830 nM
- Is compound selective in assay? Pf GC-ATP active? [6]: 0 (0: NO)
- IC50 [7]: 5430 nM

SMILES: CC(Cc1ccc(OCCCCOc2ccccc2)cc1)NCCC1CCCN1C (stereo not drawn) [TCMDC-140017]
- Is compound selective in assay? Pf FGAA active? [1]: 0 (0: NO)
- Unified cytotox (HepG2 cells [2]): 1.12 µM
- HepG2 cytoxicity (HepG2 cells [3]; [8]): 1.12 µM
- HepG2 cytoxicity (HepG2 cells [3]; [9]): <1.56 µM
- IC50 [5]: 200 nM
- Is compound selective in assay? Pf GC-ATP active? [6]: 1 (1: YES)
- IC50 [7]: 95 nM

SMILES: CN(CCCCN)Cc1ccc(-c2ccc(Cl)cc2)cc1 [TCMDC-140123]
- Is compound selective in assay? Pf FGAA active? [1]: 0 (0: NO)
- Unified cytotox (HepG2 cells [2]): 3.77 µM
- HepG2 cytoxicity (HepG2 cells [3]; [8]): 3.55 µM
- HepG2 cytoxicity (HepG2 cells [3]; [9]): 3.99 µM
- IC50 [5]: 1580 nM
- Is compound selective in assay? Pf GC-ATP active? [6]: 0 (0: NO)
- IC50 [7]: 410 nM

SMILES: CN1CCN(CCCN(Cc2cccc(-c3ccc(CNC4CCCC4)cc3)c2)C(=O)/C=C/c2ccccc2)CC1.O=C(O)C(F)(F)F [TCMDC-140544]
- Is compound selective in assay? Pf FGAA active? [1]: 0 (0: NO)
- Unified cytotox (HepG2 cells [2]): 7.04 µM
- HepG2 cytoxicity (HepG2 cells [3]; [8]): 7.70 µM
- HepG2 cytoxicity (HepG2 cells [3]; [9]): 6.39 µM
- IC50 [5]: 1360 nM
- Is compound selective in assay? Pf GC-ATP active? [6]: 0 (0: NO)
- IC50 [7]: 740 nM

SMILES: CN1CCN(CCCN(Cc2cccc(-c3ccc(CNCCc4ccccc4)cc3)c2)C(=O)c2cccs2)CC1.O=C(O)C(F)(F)F [TCMDC-140568]
- Is compound selective in assay? Pf FGAA active? [1]: 0 (0: NO)
- Unified cytotox (HepG2 cells [2]): 5.79 µM
- HepG2 cytoxicity (HepG2 cells [3]; [8]): 5.98 µM
- HepG2 cytoxicity (HepG2 cells [3]; [9]): 5.6 µM
- IC50 [5]: 1710 nM
- Is compound selective in assay? Pf GC-ATP active? [6]: 0 (0: NO)
- IC50 [7]: 890 nM

SMILES: CN1CCN(CCCNCc2cccc(-c3ccc(CNCCc4ccccc4)cc3)c2)CC1 [TCMDC-140643]
- Is compound selective in assay? Pf FGAA active? [1]: 0 (0: NO)
- Unified cytotox (HepG2 cells [2]): 13.08 µM
- HepG2 cytoxicity (HepG2 cells [3]; [8]): 7.92 µM
- HepG2 cytoxicity (HepG2 cells [3]; [9]): 18.24 µM
- IC50 [5]: 1910 nM
- Is compound selective in assay? Pf GC-ATP active? [6]: 1 (1: YES)
- IC50 [7]: 410 nM

SMILES: COc1cc(NCCCNCc2cn(Cc3cc(Br)cc(Br)c3)c3ccccc23)nc2ccccc12 [TCMDC-140677]
- Is compound selective in assay? Pf FGAA active? [1]: 0 (0: NO)
- Unified cytotox (HepG2 cells [2]): 5.03 µM
- HepG2 cytoxicity (HepG2 cells [3]; [8]): 3.94 µM
- HepG2 cytoxicity (HepG2 cells [3]; [9]): 6.13 µM
- IC50 [5]: 860 nM
- Is compound selective in assay? Pf GC-ATP active? [6]: 0 (0: NO)
- IC50 [7]: 590 nM

SMILES: CN(C)CCCOc1ccc(CN2CCC(c3c[nH]c4ccc(NCC5CCCCC5)cc34)CC2)cc1.O=C(O)C(F)(F)F [TCMDC-140737]
- Is compound selective in assay? Pf FGAA active? [1]: 1 (1: YES)
- Unified cytotox (HepG2 cells [2]): 6.14 µM
- HepG2 cytoxicity (HepG2 cells [3]; [8]): 5.48 µM
- HepG2 cytoxicity (HepG2 cells [3]; [9]): 6.8 µM
- IC50 [5]: 560 nM
- Is compound selective in assay? Pf GC-ATP active? [6]: 1 (1: YES)
- IC50 [7]: 500 nM

SMILES: CCN(CC)CCN(Cc1ccc(-c2ccc(C(F)(F)F)cc2)cc1)C(=O)Cn1cc(Cc2cnn(C)c2)c(=O)nc1/C=C/c1cccc(F)c1F [TCMDC-140964]
- Is compound selective in assay? Pf FGAA active? [1]: 1 (1: YES)
- Unified cytotox (HepG2 cells [2]): 12.05 µM
- HepG2 cytoxicity (HepG2 cells [3]; [8]): 9.69 µM
- HepG2 cytoxicity (HepG2 cells [3]; [9]): 14.4 µM
- IC50 [5]: 870 nM
- Is compound selective in assay? Pf GC-ATP active? [6]: 1 (1: YES)
- IC50 [7]: 170 nM

SMILES: Cc1c(Cn2ncc(N3CCC(N)CC3)c(Cl)c2=O)cccc1NC(=O)Nc1ccc(-c2ccccc2)cc1.O=C(O)C(F)(F)F [TCMDC-141931]
- Is compound selective in assay? Pf FGAA active? [1]: 1 (1: YES)
- Unified cytotox (HepG2 cells [2]): 18.70 µM
- HepG2 cytoxicity (HepG2 cells [3]; [8]): 22.90 µM
- HepG2 cytoxicity (HepG2 cells [3]; [9]): 14.5 µM
- IC50 [5]: 1090 nM
- Is compound selective in assay? Pf GC-ATP active? [6]: 1 (1: YES)
- IC50 [7]: 1180 nM

SMILES: Cl.Nc1c(I)cc(C(=O)Nc2ccc3nc4c(c(N)c3c2)CCCC4)cc1I [TCMDC-142289]
- Is compound selective in assay? Pf FGAA active? [1]: 0 (0: NO)
- Unified cytotox (HepG2 cells [2]): 6.27 µM
- HepG2 cytoxicity (HepG2 cells [3]; [8]): 4.52 µM
- HepG2 cytoxicity (HepG2 cells [3]; [9]): 8.03 µM
- IC50 [5]: 780 nM
- Is compound selective in assay? Pf GC-ATP active? [6]: 1 (1: YES)
- IC50 [7]: 410 nM
